pIC50: −log10 of the molar value. Where two headings read alike, the source gives them in different places.
What was measured:
[1] = tested on: KM12 cells; assay: Proliferation of KM12 cells (CellTiter-Glo); assay type: cell-based, human; conditions: read-out: KM-12, IC50
Source text: KM12 is a human colon cancer cell line in which NTRK1 is highly expressed, and gene fusion occurs with TPM3 to form TPM3-NTRK1. • [Test method]: Promega's CellTiter-Glo® Luminescent Cell Viability Assay kit was used to evaluate the inhibitory activity of the compounds on the proliferation of KM12 cells. • [Instrument]: Spectramax M3 multifunctional microplate reader from Molecular Devices. • [Test materials]: KM12 cell line (ATCC, item number CRL-12496), 96-well transparent flat-bottomed black-walled cell culture plate (Corning, item number #3603), RPMI-1640 media (GE, cat #SH30027.01), Fetal Bovine Serum FBS (Thermo Fisher, cat #10099-141), CellTiter-Glo® Luminescent Cell Viability Assay Kit (Promega, cat #G7572), PBS (Solarbio, cat #P1020), Trypsin (Thermo Fisher, cat #25200072), DMSO (Sigma, cat #D2650). • [Experimental procedure]: When resuscitating KM12 cells, the freezing tube was quickly shaken in a 37° C. water bath to melt within 1 minute. The thawed cell suspension was mixed uniformly with RPMI1640 medium containing 10% FBS, centrifuged at 1000 rpm for 5 minutes, and the supernatant discarded. 5 mL of complete medium (RPMI1640 medium with 10% FBS) was taken to resuspend the cell pellets, charged into a cell culture flask with a bottom area of 25 cm^2, and incubated in a cell incubator at 37° C., 95% humidity and 5% CO2. Cells were allowed to passage when the cell confluence rate reached about 80%. For cell passage, the old medium was discarded, and the cells were washed twice with PBS, and 0.5 mL trypsin was added to digest the cells. Upon dispersing into single cells and exfoliating from the bottom of the cell culture flask, 4.5 mL of new complete medium was added to terminate the digestion. After pipetting the cell suspension evenly, 1/5 of the cell suspension was kept and added with 4 mL of new complete medium, and after pipetting evenly, the cell flask was placed in the cell incubator for further culturing. Cell plating was performed when the cell confluence rate reached about 80% again. For cell plating, 1/5 of the cell suspension was kept for further culturing as in the cell passage method, and the remaining 4/5 of the cell suspension was placed in a 15 mL centrifuge tube, detected for cell viability by Trypan blue exclusion method to ensure that cell viability was above 90%. A cell suspension with a density of 3.33×10^4 viable cells/mL was prepared with complete medium, and 90 μL of such cell suspension was added to a 96-well cell culture plate to obtain a cell density of 3000 viable cells/mL in the cell culture plate. A control group containing no cells, no compound and only complete medium (i.e. culture medium control) and a control group containing no compound but containing cells (i.e. cell control) were set. The cell plate was placed in a cell incubator overnight.
The 10 mM compound stock solution in DMSO was first serially diluted with DMSO at a dilution factor of 3.16 times, to obtain 9 concentrations, and the 10th concentration was set as DMSO control without compound. Then, PBS was used to dilute the DMSO solutions of compounds of different concentrations, at a dilution factor of 100 times, so that the DMSO concentration in the compound solution of each concentration was 1%. Finally, 10 μL of each of the above solutions was added to the corresponding cell culture plate, so that the initial compound concentration was 10 μM, with the remaining concentrations being successively diluted at a dilution factor of 3.16 times, and the DMSO content in the cell culture plate was 0.1%.
The cell plate was placed in a cell incubator and cultured for 72 hours. For endpoint detection, the CellTiter-Glo reagent was melted, and the cell plate was moved to room temperature to equilibrate for 30 minutes, added with 100 μL of CellTiter-Glo for each well, and shaken on an orbital shaker for 5 minutes to fully lyse the cells. […]

[2] = tested on: Ba/F3 ETV6-NTRK3-G696C cells; assay: Proliferation of Ba/F3 ETV6-NTRK3-G696C cells (CellTiter-Glo); assay type: cell-based, mouse; conditions: Mus musculus, BaF3, Table 7-2; separate test; read-out: Ba/F3 ETV6-NTRK3-G696C, IC50
Source text: Ba/F3 ETV6-NTRK3-G696C is a stable transgenic cell line constructed by KYinno Biotechnology Co., Ltd. on mouse primary B cell Ba/F3 wherein NTRK3 is highly expressed with a mutation of G at position […] to C and fused with ETV6 to form ETV6-NTRK3. • [Test method]: Promega's CellTiter-Glo® Luminescent Cell Viability Assay kit was used to evaluate the inhibitory activity of the compounds on the proliferation of Ba/F3 ETV6-NTRK3-G696C cells. • [Instrument]: Spectramax M3 multifunctional microplate reader from Molecular Devices. • [Test materials]: Ba/F3 ETV6-NTRK3-G696C cell line (constructed by KYinno Biotechnology Co., Ltd. (Beijing)), 96-well transparent flat-bottomed black-walled cell culture plate (Corning, cat #3603), RPMI-1640 media (GE, product number #SH30027.01), fetal bovine serum FBS (Thermo Fisher, cat #10099-141), CellTiter-Glo® Luminescent Cell Viability Assay kit (Promega, cat #G7572), PBS (Solarbio, cat #P1020), DMSO (Sigma, cat #D2650). • [Experimental procedure]: When resuscitating Ba/F3 ETV6-NTRK3-G696C cells, • the freezing tube was quickly shaken in a 37° C. water bath to melt within 1 minute. The thawed cell suspension was mixed uniformly with RPMI1640 medium containing 10% FBS, centrifuged at 1000 rpm for 5 minutes, and the supernatant discarded. 5 mL of complete medium (RPMI1640 medium with 10% FBS) was taken to resuspend the cell pellets, charged into a cell culture flask with a bottom area of 25 cm^2, and incubated in a cell incubator at 37° C., 95% humidity and 5% CO2. Cells were allowed to passage when the number of cells reached about 10^6 cells/mL. For cell passage, the old cell suspension was directly pipetted evenly, 1/5 of the cell suspension was kept, 4 mL of new complete medium was added, after pipetting evenly, the cell flask was placed in the cell incubator for further culturing. Cell plating was performed when the number of cells reached about 10^6 cells/mL again. For cell plating, 1/5 of the cell suspension was kept for further culturing as in the cell passage method, and the remaining 4/5 of the cell suspension was placed in a 15 mL centrifuge tube, detected for cell viability by Trypan blue exclusion method to ensure that cell viability was above 90%. A cell suspension with a density of 5.56×10^4 viable cells/mL was prepared with complete medium, and 90 μL of such cell suspension was added to a 96-well cell culture plate to obtain the cell density of 5000 viable cells/mL in the cell culture plate. A control group containing no cells, no compound and only complete medium (i.e. culture medium control) and a control group containing no compound but containing cells (i.e. cell control) were set. The cell plate was placed in a cell incubator overnight. The 10 mM compound stock solution in DMSO was first serially diluted with DMSO at a dilution factor of 3.16 times, to obtain 9 concentrations, and the 10th concentration was set as DMSO control without compound. Then, PBS was used to dilute the DMSO solutions of compounds of different concentrations, at a dilution factor of 100 times, so that the DMSO concentration in the compound solution of each concentration was 1%. Finally, 10 μL of each of the above solutions was added to the corresponding cell culture plate, so that the initial compound concentration was 10 μM, with the remaining concentrations being successively diluted at a dilution factor of 3.16 times, and the DMSO content in the cell culture plate was 0.1%. The cell plate was placed in a cell incubator and cultured for 72 hours. For endpoint detection, the CellTiter-Glo reagent was melted, and the cell plate was moved to room temperature to equilibrate for 30 minutes, added with 100 μL of CellTiter-Glo for each well, and shaken on an orbital shaker for 5 minutes to fully lyse the cells. […]

[3] = tested on: MKN45 cells; assay: Proliferation of MKN45 cells; assay type: cell-based; conditions: Homo sapiens, MKN-45; Table 8
Protocol: MKN45 is a human poorly differentiated gastric cancer cell line with high MET expression. Cell proliferation experiments were performed according to literature methods (Zhang, D. et al. Bioorg. Med. Chem. 2013, 21, 6804; Riss, T. L.; Moravec, R. A.; Niles, A. L.; et al. Cell Viability Assays 2013 May 1 [Updated 2016 Jul. 1]. In: Sittampalam, G. S.; Grossman, A.; Brimacombe, K.; et al., editors. Assay Guidance Manual [Internet]. Bethesda (MD): Eli Lilly & Company and the National Center for Advancing Translational Sciences; 2004-. Available from: https://www.ncbi.nlm.nih.gov/books/NBK144065/).

[4] = Homo sapiens, KM12, Table 1-2, separate test

SMILES | pIC50 [2] | pIC50 [1, 4] | other results
N.N.[Cl][Pt][Cl] [Cisplatin, reference compound] |  |  | pIC50 ([1]; Table 1, 72 hours): 4.56
CN1CCN(c2ccc(C(=O)Nc3n[nH]c4ccc(Cc5cc(F)cc(F)c5)cc34)c(NC3CCOCC3)c2)CC1 [RXDX-101, reference compound] |  |  | pIC50 ([1]; Homo sapiens, KM12, 72 h, Table 1, 72 hours): 8.29

Further lines, with some results ahead:

pIC50 [2] | SMILES | pIC50 [1, 4] | other results
8.20 | CCn1ncc2cc(Oc3ccc(NC(=O)c4ccc(OC5CC5)n(-c5ccc(F)cc5)c4=O)cc3F)c(-c3cn[nH]c3)cc21 [Example 25, N-(3-fluoro-4-(1-ethyl-6-(1H-pyrazol-4-yl)-1H-indazol-5-yloxy)phenyl)-1-(4-fluorophenyl)-6-cyclopropoxy-2-oxo-1,2-dihydropyridine-3-carboxamide] | 7.54 | 
8.43 | Cn1ncc2cc(Oc3ccc(NC(=O)c4ccc(OCC(F)(F)F)n(-c5ccc(F)cc5)c4=O)cc3F)c(-c3cn[nH]c3)cc21 [Example 17, N-(3-fluoro-4-(1-methyl-6-(1H-pyrazol-4-yl)-1H-indazol-5-yloxy)phenyl)-1-(4-fluorophenyl)-6-(2,2,2-trifluoroethoxy)-2-oxo-1,2-dihydropyidine-3-carboxamide] | 7.72 | pIC50 [3]: 7.82
8.52 | CCn1ncc2cc(Oc3ccc(NC(=O)c4ccc(OCC(F)(F)F)n(-c5ccc(F)cc5)c4=O)cc3F)c(-c3cn[nH]c3)cc21 [Example 27, N-(3-fluoro-4-(1-ethyl-6-(1H-pyrazol-4-yl)-1H-indazol-5-yloxy)phenyl)-1-(4-fluorophenyl)-6-(2,2,2-trifluoroethoxy)-2-oxo-1,2-dihydropyidine-3-carboxamide] |  | 

— patent US11952364B2, “TRK inhibitors useful as anticancer drugs” (TYLIGAND BIOSCIENCE (SHANGHAI) LIMITED, priority 2018, dated 2024)
